Source: patent US20250115581A1, “SUBSTITUTED PIPERIDINES AS CK1A DEGRADERS” (Monte Rosa Therapeutics, Inc., priority 2022, published 2025)

Tests used:
CK1α = target: T1, CK1α (Homo sapiens, UniProt P48729+Q96SW2); test: CK1α NanoBit Assay (HiBiT-tagged CSNK1A1 in HEK293 cells, luminescence); format: cell-based; conditions: 24 h
T1 construct: HEK293 clonal lines with CRISPR KI HiBiT tag on CSNK1A1; host or cells: HEK293 clonal line, CRISPR knock-in HiBiT at the CSNK1A1 locus, stably expressing LgBiT
Procedure, shortened: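 HEK293 with endogenous HiBiT-tagged CSNK1A1 and stable LgBiT, live-cell Endurazine substrate; compound added at 10 or 30 μM final top concentration after 16 h plating, then 24 h at 37 °C. Luminescence normalised to plate controls; DC50 by 3-parameter logistic fit, hill slope 1.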

CRBN/DDB1 = CRBN/DDB1 (Homo sapiens, UniProt Q96SW2); test: HTRF binding assay (displacement of Cy5-thalidomide probe from CRBN/DDB1); conditions: CRBN/DDB1 2.5 nM, Cy5-Thalidomide 100 nM, 30 min; geometric mean; read-out: HTRF_Thali_Disp_DR_geo_IC50
Procedure, shortened: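 HTRF displacement of Cy5-thalidomide probe (100 nM) from His-tagged CRBN/DDB1 (2.5 nM) with anti-His terbium cryptate, in HEPES/NaCl/TCEP/EDTA/Tween20 buffer; 10-point 1:3 series, 30 min at ambient temperature. 665/620 nm ratio fitted 4-parameter logistic for IC50; Ki via Cheng-Prusoff.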

T1 sequence (P48729 whole entry): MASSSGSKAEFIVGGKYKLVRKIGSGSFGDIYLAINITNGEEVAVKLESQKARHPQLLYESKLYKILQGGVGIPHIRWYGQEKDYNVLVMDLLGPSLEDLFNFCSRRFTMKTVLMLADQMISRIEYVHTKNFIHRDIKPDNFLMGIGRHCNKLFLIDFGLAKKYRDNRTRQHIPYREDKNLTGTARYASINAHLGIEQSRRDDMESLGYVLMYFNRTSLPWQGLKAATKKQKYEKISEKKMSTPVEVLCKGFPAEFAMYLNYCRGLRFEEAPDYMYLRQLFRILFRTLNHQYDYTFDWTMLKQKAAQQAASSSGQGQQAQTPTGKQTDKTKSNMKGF
T1 sequence (Q96SW2 whole entry): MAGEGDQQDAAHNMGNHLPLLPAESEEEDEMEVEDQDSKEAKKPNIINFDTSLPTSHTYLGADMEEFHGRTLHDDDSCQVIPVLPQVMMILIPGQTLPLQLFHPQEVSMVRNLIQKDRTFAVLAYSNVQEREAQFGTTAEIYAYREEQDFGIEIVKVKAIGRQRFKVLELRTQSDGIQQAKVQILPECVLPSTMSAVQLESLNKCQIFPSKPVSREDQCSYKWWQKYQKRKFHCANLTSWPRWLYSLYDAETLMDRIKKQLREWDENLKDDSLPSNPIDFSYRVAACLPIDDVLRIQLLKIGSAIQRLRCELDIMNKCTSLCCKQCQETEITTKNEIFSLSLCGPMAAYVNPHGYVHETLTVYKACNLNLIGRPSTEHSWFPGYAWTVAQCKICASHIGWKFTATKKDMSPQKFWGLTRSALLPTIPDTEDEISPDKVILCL
T1 sequence (Q16531 whole entry partner): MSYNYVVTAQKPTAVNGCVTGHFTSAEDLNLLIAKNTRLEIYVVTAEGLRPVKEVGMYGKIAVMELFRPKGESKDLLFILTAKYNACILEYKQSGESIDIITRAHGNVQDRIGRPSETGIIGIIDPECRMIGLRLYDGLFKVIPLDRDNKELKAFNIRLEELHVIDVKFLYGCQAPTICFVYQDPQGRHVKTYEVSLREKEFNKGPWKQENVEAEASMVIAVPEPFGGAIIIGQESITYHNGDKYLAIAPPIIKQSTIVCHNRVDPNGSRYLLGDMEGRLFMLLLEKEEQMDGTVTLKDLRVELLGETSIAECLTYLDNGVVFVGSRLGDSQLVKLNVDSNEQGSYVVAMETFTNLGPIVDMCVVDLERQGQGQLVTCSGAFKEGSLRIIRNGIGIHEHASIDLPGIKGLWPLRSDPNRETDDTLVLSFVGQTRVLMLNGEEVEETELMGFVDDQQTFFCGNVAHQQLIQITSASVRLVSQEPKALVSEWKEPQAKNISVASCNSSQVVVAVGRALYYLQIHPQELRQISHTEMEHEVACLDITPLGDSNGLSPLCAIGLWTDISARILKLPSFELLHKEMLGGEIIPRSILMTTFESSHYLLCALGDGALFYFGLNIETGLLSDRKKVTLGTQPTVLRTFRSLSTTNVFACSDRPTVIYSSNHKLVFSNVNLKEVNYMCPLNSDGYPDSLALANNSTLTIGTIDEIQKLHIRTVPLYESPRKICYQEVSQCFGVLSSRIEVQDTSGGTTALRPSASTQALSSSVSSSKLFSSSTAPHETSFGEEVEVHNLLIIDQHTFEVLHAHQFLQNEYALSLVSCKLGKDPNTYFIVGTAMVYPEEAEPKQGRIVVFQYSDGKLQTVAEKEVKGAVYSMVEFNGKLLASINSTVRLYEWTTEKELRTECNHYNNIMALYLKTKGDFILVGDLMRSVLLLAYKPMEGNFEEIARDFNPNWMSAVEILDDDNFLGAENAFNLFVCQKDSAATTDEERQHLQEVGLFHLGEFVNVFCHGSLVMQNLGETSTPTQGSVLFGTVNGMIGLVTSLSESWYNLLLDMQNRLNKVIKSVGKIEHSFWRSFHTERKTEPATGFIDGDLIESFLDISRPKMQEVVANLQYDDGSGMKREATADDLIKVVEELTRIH
CRBN/DDB1, sequence (Q96SW2 whole entry): as the sequence (Q96SW2 whole entry) above
CRBN/DDB1, sequence (Q16531 whole entry partner): as the sequence (Q16531 whole entry partner) above

SMILES	DC50 (CK1α) [µM]	IC50 (CRBN/DDB1) [nM]
O=C1CCC(N2Cc3cc(N4CCN(C5CCOCC5)C4=O)ccc3C2=O)C(=O)N1 (stereo not drawn) [Compound 183, 3-(1-oxo-5-(2-oxo-3-(tetrahydro-2H-pyran-4-yl)imidazolidin-1-yl)isoindolin-2-yl)piperidine-2,6-dione]	> 1	100 to 1000
C[C@H]1CN(c2ccc3c(c2)CN(C2CCC(=O)NC2=O)C3=O)C(=O)N1c1ccccc1 (stereo partly drawn) [Compound 109, 3-(5-((S)-4-methyl-2-oxo-3-phenylimidazolidin-1-yl)-1-oxoisoindolin-2-yl) piperidine-2,6-dione]	≤ 0.1	100 to 1000
O=C1CCC(N2Cc3cc(N4CCN(c5ccc(Cl)cc5)C4=O)ccc3C2=O)C(=O)N1 (stereo not drawn) [Compound 114]	≤ 0.1	100 to 1000
Cc1ccc(N2C(=O)N(c3ccc4c(c3)CN(C3CCC(=O)NC3=O)C4=O)C[C@@H]2C)cc1 (stereo partly drawn) [Compound 145, 3-(5-((S)-4-methyl-2-oxo-3-(p-tolyl)imidazolidin-1-yl)-1-oxoisoindolin-2-yl)piperidine-2,6-dione]	≤ 0.1	100 to 1000
O=C1CCC(N2Cc3cc(N4CCN(C5CC5)C4=O)ccc3C2=O)C(=O)N1 (stereo not drawn) [Compound 164, 3-[5-(3-cyclopropyl-2-oxo-imidazolidin-1-yl)-1-oxo-isoindolin-2-yl]piperidine-2,6-dione]	0.1 to 1	100 to 1000
Cc1ccc(N2C(=O)N(c3ccc4c(c3)CN(C3CCC(=O)NC3=O)C4=O)C[C@H]2C)nc1 (stereo partly drawn) [Compound 156, 3-(5-((R)-4-methyl-3-(5-methylpyridin-2-yl)-2-oxoimidazolidin-1-yl)-1-oxoisoindolin-2-yl)piperidine-2,6-dione]	0.1 to 1	100 to 1000
COCc1cccc(N2C(=O)N(c3ccc4c(c3)CN(C3CCC(=O)NC3=O)C4=O)C[C@H]2C)c1 (stereo partly drawn) [Compound 149, 3-(5-((R)-3-(3-(methoxymethyl)phenyl)-4-methyl-2-oxoimidazolidin-1-yl)-1-oxoisoindolin-2-yl)piperidine-2,6-dione]	≤ 0.1	100 to 1000
COC(C)c1ccccc1N1CCN(c2ccc3c(c2)CN(C2CCC(=O)NC2=O)C3=O)C1=O (stereo not drawn) [Compound 169, 3-(5-(3-(2-(1-methoxyethyl)phenyl)-2-oxoimidazolidin-1-yl)-1-oxoisoindolin-2-yl)piperidine-2,6-dione]	0.1 to 1	100 to 1000
Cc1ccc(N2CCN(c3ccc4c(c3)CN(C3CCC(=O)NC3=O)C4=O)C2=O)c(C)c1 (stereo not drawn) [Compound 150, 3-(5-(3-(2,4-dimethylphenyl)-2-oxoimidazolidin-1-yl)-1-oxoisoindolin-2-yl)piperidine-2,6-dione]	≤ 0.1	100 to 1000
O=C1CCC(N2Cc3cc(N4CCN(c5ccc(C(F)F)cc5)C4=O)ccc3C2=O)C(=O)N1 (stereo not drawn) [Compound 129, 3-(5-(3-(4-(difluoromethyl)phenyl)-2-oxoimidazolidin-1-yl)-1-oxoisoindolin-2-yl)piperidine-2,6-dione]	≤ 0.1	100 to 1000
Cc1ccc(N2C(=O)N(c3ccc4c(c3)CN(C3CCC(=O)NC3=O)C4=O)C[C@@H]2C(F)F)cc1 (stereo partly drawn) [Compound 158, 3-(5-((R)-4-(difluoromethyl)-2-oxo-3-(p-tolyl)imidazolidin-1-yl)-1-oxoisoindolin-2-yl)piperidine-2,6-dione]	0.1 to 1	100 to 1000
COCc1cc(C)ccc1N1CCN(c2ccc3c(c2)CN(C2CCC(=O)NC2=O)C3=O)C1=O (stereo not drawn) [Compound 166, 3-(5-(3-(2-(methoxymethyl)-4-methylphenyl)-2-oxoimidazolidin-1-yl)-1-oxoisoindolin-2-yl)piperidine-2,6-dione]	0.1 to 1	100 to 1000
O=C1CCC(N2Cc3cc(N4CC5(CC5)N(c5ccccc5)C4=O)ccc3C2=O)C(=O)N1 (stereo not drawn) [Compound 152, 3-(1-oxo-5-(5-oxo-4-phenyl-4,6-diazaspiro[2.4]heptan-6-yl)isoindolin-2-yl)piperidine-2,6-dione]	≤ 0.1	100 to 1000
C[C@@H]1CN(c2ccc3c(c2)CN(C2CCC(=O)NC2=O)C3=O)C(=O)N1c1ncccn1 (stereo partly drawn) [Compound 182, 3-(5-((R)-4-methyl-2-oxo-3-(pyrimidin-2-yl)imidazolidin-1-yl)-1-oxoisoindolin-2-yl)piperidine-2,6-dione]	> 1	100 to 1000
CN1CC(c2ccc(N3CCN(c4ccc5c(c4)CN(C4CCC(=O)NC4=O)C5=O)C3=O)cc2)C1 (stereo not drawn) [Compound 176, 3-(5-(3-(4-(1-methylazetidin-3-yl)phenyl)-2-oxoimidazolidin-1-yl)-1-oxoisoindolin-2-yl)piperidine-2,6-dione]	> 1	≤ 100
N#Cc1ccc(N2CCN(c3ccc4c(c3)CN(C3CCC(=O)NC3=O)C4=O)C2=O)cc1 (stereo not drawn) [Compound 115]	0.1 to 1	100 to 1000
C[C@@H]1CN(c2ccc3c(c2)CN(C2CCC(=O)NC2=O)C3=O)C(=O)N1c1ccncn1 (stereo partly drawn) [Compound 180, 3-(5-((R)-4-methyl-2-oxo-3-(pyrimidin-4-yl)imidazolidin-1-yl)-1-oxoisoindolin-2-yl)piperidine-2,6-dione]	> 1	> 1000
O=C1CCC(N2Cc3cc(N4CCN(c5cccc(Cl)c5)C4=O)ccc3C2=O)C(=O)N1 (stereo not drawn) [Compound 118, 3-(5-(3-(3-chlorophenyl)-2-oxoimidazolidin-1-yl)-1-oxoisoindolin-2-yl)piperidine-2,6-dione]	≤ 0.1	100 to 1000
